{"source": "paper PMC7539012", "about": "“Hyperphosphorylated tau aggregation and cytotoxicity modulators screen identified prescription drugs linked to Alzheimer's disease and cognitive functions” (Scientific Reports, 2020)", "note": "Counter-ions that a name gives are not always drawn. *1 amine or outer side, *2 acyl side, *3 side chain or, on linkers, in order; H or OH if unused. Where a SMILES comes first, the peptide text is derived from it. Bridges are numbered along the chain shown (N, C = ends). [ ]: non-standard residue; d: D form. The star is where a group is joined. X1 = NC1=N[C@@H](O)C[C@H]([C@H](N[*:1])C(=O)[*:2])N1; ΔAla(Z-3-ureido) = NC(=O)N/C=C(\\N)C(=O)O; β3hOrn = NCCC[C@H](N)CC(=O)*; Dap = NC[C@H](N)C(=O)O", "data": [{"test_system": "T1, 1N4R p-tau", "T1 construct": "made in house; host or cells: E. coli (PIMAX system)", "assay": "p-tau aggregation modulator screen of 1280-compound library (ThS fluorescence net change over 16 h)", "assay_type": "biochemical", "parameters": "key to PTAI>3SD: *: PTAI>3SD", "conditions": "not given", "values": [{"compound": "CN[C@H](CC(C)C)C(=O)N[C@H]1C(=O)N[C@@H](CC(N)=O)C(=O)N[C@H]2C(=O)N[C@H]3C(=O)N[C@H](C(=O)N[C@H](C(=O)O)c4cc(O)cc(O)c4-c4cc3ccc4O)[C@H](O)c3ccc(c(Cl)c3)Oc3cc2cc(c3O[C@@H]2O[C@H](CO)[C@@H](O)[C@H](O)[C@H]2O[C@H]2C[C@](C)(N)[C@H](O)[C@H](C)O2)Oc2ccc(cc2Cl)[C@H]1O", "note": "[Vancomycin hydrochloride]", "ThS net change": 408}, {"compound": "COc1ccc(CCN(C)CCCC(C#N)(c2ccc(OC)c(OC)c2)C(C)C)cc1OC", "note": "(stereo not drawn) [Verapamil hydrochloride]", "ThS net change": 325}, {"compound": "Cc1cc(C(C)(C)C)cc(C)c1CC1=NCCN1", "note": "[Xylometazoline hydrochloride]", "ThS net change": 295}, {"compound": "CN(C)C/C=C(\\c1ccc(Br)cc1)c1cccnc1.Cl.Cl.O", "note": "[Zimelidine dihydrochloride monohydrate]", "ThS net change": 325}, {"compound": "Beta-Escin", "ThS net change": 471}, {"compound": "Hydralazine hydrochloride", "ThS net change": 214}, {"compound": "Lymecycline", "ThS net change": 312}, {"compound": "Merbromin", "ThS net change": 306}, {"compound": "Tropisetron HCl", "ThS net change": 428}]}, {"test_system": "T1, 1N4R p-tau", "assay": "p-tau aggregation modulator screen of 1280-compound library (ThS fluorescence net change over 16 h)", "assay_type": "biochemical", "parameters": "key to PTAI>3SD: *: PTAI>3SD", "conditions": "30 µM compound, 6 µM p-tau, 16 h", "values": [{"compound": "CC/C(=C(/CC)c1ccc(O)cc1)c1ccc(O)cc1", "note": "[diethylstilbestrol, reference compound]", "effect on p-tau aggregation in pilot screen": "none of them affected p-tau aggregation"}, {"compound": "CC/C(=C(\\c1ccccc1)c1ccc(OCCN(C)C)cc1)c1ccccc1", "note": "[tamoxifen, reference compound]", "effect on p-tau aggregation in pilot screen": "none of them affected p-tau aggregation"}]}, {"test_system": "T1, 1N4R p-tau", "assay": "p-tau aggregation modulator screen of 1280-compound library (ThS fluorescence net change over 16 h)", "assay_type": "biochemical", "parameters": "key to PTAI>3SD: *: PTAI>3SD", "conditions": "1280-compound library screen; ThS fluorescence net change over 16 h", "values": [{"compound": "COc1cc(C(=O)NC2CCCNC2)cc(OC)c1OC", "note": "(stereo not drawn) [Troxipide]", "ThS net change": 407}, {"compound": "CC(C)(C)NCC(O)c1ccccc1Cl", "note": "(stereo not drawn) [Tulobuterol]", "ThS net change": 398}, {"compound": "CC(C)C[C@H](NC(=O)[C@@H](O)[C@H](N)Cc1ccccc1)C(=O)O", "note": "[Ubenimex]", "ThS net change": 390}, {"compound": "COc1ccccc1N1CCN(CCCNc2cc(=O)n(C)c(=O)n2C)CC1", "note": "[Urapidil hydrochloride]", "ThS net change": 388}, {"compound": "CC(C)[C@H](N)C(=O)OCCOCn1cnc2c(=O)[nH]c(N)nc21", "note": "[Valacyclovir hydrochloride]", "ThS net change": 396}, {"compound": "Cc1onc(-c2ccccc2)c1-c1ccc(S(N)(=O)=O)cc1", "note": "[Valdecoxib]", "ThS net change": 393}, {"compound": "CCCC(CCC)C(=O)O", "note": "[Valproic acid]", "ThS net change": 403}, {"compound": "Nc1ncnc2c1ncn2[C@@H]1O[C@H](CO)[C@@H](O)[C@@H]1O", "note": "[Vidarabine]", "ThS net change": 401}, {"compound": "O=C(CCCCCCC(=O)Nc1ccccc1)NO", "note": "[Vorinostat]", "ThS net change": 398}, {"compound": "Nc1ccn([C@H]2CC[C@@H](CO)O2)c(=O)n1", "note": "[Zalcitabine]", "ThS net change": 410}, {"compound": "CC(c1cc2ccccc2s1)N(O)C(N)=O", "note": "(stereo not drawn) [Zileuton]", "ThS net change": 410}, {"compound": "CN(C)CCOC1=Cc2ccccc2Sc2ccc(Cl)cc21", "note": "[Zotepine]", "ThS net change": 388}, {"compound": "Cl.Cl.OCCN1CCN(CC/C=C2/c3ccccc3Sc3ccc(Cl)cc32)CC1", "note": "[Zuclopenthixol dihydrochloride]", "ThS net change": 398}, {"compound": "CC/C(=C(/CC)c1ccc(O)cc1)c1ccc(O)cc1", "note": "[diethylstilbestrol, reference compound]", "ThS net change": 406}, {"compound": "Minoxidil", "ThS net change": 412}]}, {"test_system": "T1, 1N4R p-tau", "assay": "p-tau aggregation modulator screen of 1280-compound library (ThS fluorescence net change over 16 h)", "assay_type": "biochemical", "parameters": "key to PTAI>3SD: *: PTAI>3SD", "conditions": "1280-compound library screen; […]", "values": [{"compound": "CC(=O)O[C@H]1C[C@@H]2CC[C@@H]3[C@H](CC[C@@]4(C)[C@H]3C[C@H]([N+]3(C)CCCCC3)[C@@H]4OC(C)=O)[C@@]2(C)C[C@@H]1N1CCCCC1", "note": "[Vecuronium bromide]", "ThS net change": 382}, {"compound": "COc1ccc(C(CN(C)C)C2(O)CCCCC2)cc1", "note": "(stereo not drawn) [Venlafaxine]", "ThS net change": 404}, {"compound": "O=P(O)(O)C(O)(Cn1ccnc1)P(=O)(O)O", "note": "[Zoledronic acid hydrate]", "ThS net change": 398}, {"compound": "CN1CCN(C(=O)OC2c3nccnc3C(=O)N2c2ccc(Cl)cn2)CC1", "note": "(stereo not drawn) [Zopiclone]", "ThS net change": 407}, {"compound": "Molsidomine", "ThS net change": 401}]}, {"test_system": "T1, 1N4R p-tau", "assay": "p-tau aggregation modulator screen of 1280-compound library (ThS fluorescence net change over 16 h)", "assay_type": "biochemical", "parameters": "key to PTAI>3SD: *: PTAI>3SD", "conditions": "flag: p-tau aggregation inhibitor, ThS net change more than 3 SD from mean", "values": [{"compound": "C=Cc1c(C)c2cc3nc(cc4[nH]c(cc5nc(cc1[nH]2)C(C)=C5CCC(=O)O)c(CCC(=O)OC)c4C)[C@@]1(C)C3=CC=C(C(=O)OC)C1C(=O)OC", "note": "(stereo partly drawn) [Verteporfin]", "PTAI>3SD": "*"}]}, {"test_system": "T1, 1N4R p-tau", "assay": "p-tau aggregation modulator screen of 1280-compound library (ThS fluorescence net change over 16 h)", "assay_type": "biochemical", "parameters": "key to PTAI>3SD: *: PTAI>3SD", "conditions": "library screen, ThS fluorescence net change over 16 h with p-tau", "values": [{"compound": "C=Cc1c(C)c2cc3nc(cc4[nH]c(cc5nc(cc1[nH]2)C(C)=C5CCC(=O)O)c(CCC(=O)OC)c4C)[C@@]1(C)C3=CC=C(C(=O)OC)C1C(=O)OC", "note": "(stereo partly drawn) [Verteporfin]", "ThS net change": -157}, {"compound": "O=C1Cc2cc(CCN3CCN(c4nsc5ccccc45)CC3)c(Cl)cc2N1", "note": "[Ziprasidone Hydrochloride]", "ThS net change": 293}]}, {"test_system": "T1, 1N4R p-tau", "assay": "p-tau aggregation modulator screen of 1280-compound library (ThS fluorescence net change over 16 h)", "assay_type": "biochemical", "parameters": "key to PTAI>3SD: *: PTAI>3SD", "conditions": "p-tau aggregation modulator screen of 1280-compound library; ThS fluorescence net change", "values": [{"compound": "Cc1ccc(/C(=C\\CN2CCCC2)c2ccccn2)cc1.Cl", "note": "[Triprolidine hydrochloride]", "ThS net change": 360}, {"compound": "CO[C@H]1C[C@H](O[C@H]2[C@H](C)[C@@H](O[C@@H]3O[C@H](C)C[C@H](N(C)C)[C@H]3OC(C)=O)[C@@H](C)C[C@@]3(CO3)C(=O)[C@H](C)[C@@H](OC(C)=O)[C@@H](C)[C@@H](C)OC(=O)[C@@H]2C)O[C@@H](C)[C@@H]1OC(C)=O", "note": "[Troleandomycin]", "ThS net change": 357}, {"compound": "CC[C@H]1OC(=O)C[C@@H](O)[C@H](C)[C@@H](O[C@@H]2O[C@H](C)[C@@H](O[C@H]3C[C@@](C)(O)[C@@H](O)[C@H](C)O3)[C@H](N(C)C)[C@H]2O)[C@@H](CC=O)C[C@@H](C)C(=O)/C=C/C(C)=C/[C@@H]1CO[C@@H]1O[C@H](C)[C@@H](O)[C@@H](OC)[C@H]1OC", "note": "[Tylosin]", "ThS net change": 372}, {"compound": "Clc1ccc(Nc2nnc(Cc3ccncc3)c3ccccc23)cc1", "note": "[Vatalanib]", "ThS net change": 356}, {"compound": "C=CC(N)CCC(=O)O", "note": "(stereo not drawn) [Vigabatrin]", "ThS net change": 362}, {"compound": "CC[C@]12CCCN3CCc4c(n(c5ccccc45)[C@@](O)(C(=O)OC)C1)[C@@H]32", "note": "[Vincamine]", "ThS net change": 348}, {"compound": "CCOC(=O)C1=C[C@]2(CC)CCCN3CCc4c(n1c1ccccc41)[C@@H]32", "note": "[Vinpocetine]", "ThS net change": 370}, {"compound": "O=C(NCCNCC(O)COc1ccc(O)cc1)N1CCOCC1", "note": "(stereo not drawn) [Xamoterol hemifumarate]", "ThS net change": 378}, {"compound": "CCCOc1ccccc1-c1nc2nn[nH]c2c(=O)[nH]1", "note": "[Zaprinast]", "ThS net change": 335}, {"compound": "Cc1cc(CC(=O)[O-])n(C)c1C(=O)c1ccc(Cl)cc1.[Na+]", "note": "[Zomepirac sodium salt]", "ThS net change": 356}, {"compound": "NS(=O)(=O)Cc1noc2ccccc12", "note": "[Zonisamide]", "ThS net change": 341}]}, {"test_system": "T1, 1N4R p-tau", "assay": "p-tau aggregation modulator screen of 1280-compound library (ThS fluorescence net change over 16 h)", "assay_type": "biochemical", "parameters": "key to PTAI>3SD: *: PTAI>3SD", "conditions": "p-tau aggregation modulator screen of 1280-compound library; […]", "values": [{"compound": "Cc1cccc(C)c1N=C1NCCCS1", "note": "[Xylazine]", "ThS net change": 366}, {"compound": "CCN(C(C)=O)c1cccc(-c2ccnc3c(C#N)cnn23)c1", "note": "[Zaleplon]", "ThS net change": 368}, {"compound": "Deoxycorticosterone", "ThS net change": 346}]}, {"test_system": "T1, 1N4R p-tau", "assay": "p-tau aggregation modulator screen of 1280-compound library (ThS fluorescence net change over 16 h)", "assay_type": "biochemical", "parameters": "key to PTAI>3SD: *: PTAI>3SD", "conditions": "p-tau aggregation modulator screen of the compound library, ThS fluorescence net change", "values": [{"compound": "Cc1c(C)c2c(c(C)c1O)CCC(C)(COc1ccc(CC3SC(=O)NC3=O)cc1)O2", "note": "(stereo not drawn) [Troglitazone]", "ThS net change": 451}, {"compound": "Cc1c(C)c2c(c(C)c1O)CCC(C)(C(=O)O)O2", "note": "(stereo not drawn) [Trolox]", "ThS net change": 413}, {"compound": "C[C@H](CCC(=O)O)[C@H]1CC[C@H]2[C@@H]3[C@@H](O)C[C@@H]4C[C@H](O)CC[C@]4(C)[C@H]3CC[C@]12C", "note": "[Urosiol]", "ThS net change": 426}, {"compound": "CCCCC(=O)N(Cc1ccc(-c2ccccc2-c2nnn[nH]2)cc1)[C@H](C(=O)O)C(C)C", "note": "[Valsartan]", "ThS net change": 417}, {"compound": "CCCc1nc(C)c2c(=O)[nH]c(-c3cc(S(=O)(=O)N4CCN(CC)CC4)ccc3OCC)nn12", "note": "[Vardenafil]", "ThS net change": 414}, {"compound": "NCCC[C@H](N)CC(=O)N[C@H]1CNC(=O)[C@H]([C@H]2C[C@H](O)N=C(N)N2)NC(=O)/C(=C/NC(N)=O)NC(=O)[C@H](CO)NC(=O)[C@H](CO)NC1=O.O=S(=O)(O)O", "note": "[Viomycin sulfate] (β3hOrn-[Dap]SS[ΔAla(Z-3-ureido)][X1]; lactam 1-C)", "ThS net change": 453}, {"compound": "C[C@@H](c1ncncc1F)[C@](O)(Cn1cncn1)c1ccc(F)cc1F", "note": "[Voriconazole]", "ThS net change": 435}, {"compound": "CC(=O)CC(c1ccccc1)c1c(O)c2ccccc2oc1=O", "note": "(stereo not drawn) [Warfarin]", "ThS net change": 413}, {"compound": "COC(=O)[C@@H]1[C@H]2C[C@H]3c4[nH]c5ccccc5c4CCN3C[C@@H]2CC[C@@H]1O", "note": "[Yohimbine hydrochloride]", "ThS net change": 418}, {"compound": "COc1cc(C(=O)NS(=O)(=O)c2ccccc2C)ccc1Cc1cn(C)c2ccc(NC(=O)OC3CCCC3)cc12", "note": "[Zafirlukast]", "ThS net change": 549}, {"compound": "COc1cc(-c2ccc(=O)[nH]n2)ccc1OC(F)F", "note": "[Zardaverine]", "ThS net change": 454}, {"compound": "Cc1cn([C@H]2C[C@H](N=[N+]=[N-])[C@@H](CO)O2)c(=O)[nH]c1=O", "note": "[Zidovudine, AZT]", "ThS net change": 448}, {"compound": "Josamycin", "ThS net change": 446}, {"compound": "Olmesartan", "ThS net change": 482}, {"compound": "Tyloxapol", "ThS net change": 577}]}]}
